Laboratory results taken from the Deep4Chem optical property database.
Blank lines part the entries; values can stand above or below the compound they belong to.

Assay: solvent given as SMILES

Structure (SMILES): COC(=O)CN1C(=O)c2cc3ccc(N(C)C)cc3cc2C1=O
absorption maximum (in C1CCOC1): 373 nm
absorption maximum (in CC#N): 380 nm
absorption maximum (in CC(C)=O): 375 nm
absorption maximum (in CCO): 379 nm
absorption maximum (in Cc1ccccc1): 373 nm
absorption maximum (in ClC(Cl)Cl): 380 nm

Structure (SMILES): CCCCOc1ccc(-c2cc3c(o2)c(-c2ccc(OCCCC)cc2)c2n3[B-](F)(F)[N+]3=Cc4c(-c5ccc(OCCCC)cc5)c5oc(-c6ccc(OCCCC)cc6)cc5n4[B-](F)(F)[N+]3=C2)cc1
absorption maximum (in C1CCOC1): 619 nm
absorption maximum (in CN(C)C=O): 620 nm
absorption maximum (in CS(C)=O): 625 nm
absorption maximum (in Cc1ccccc1): 626 nm
absorption maximum (in ClC(Cl)Cl): 624 nm
absorption maximum (in ClCCl): 622 nm

Structure (SMILES): COc1cccc(OC)c1C1=C2C(C)=CC(C)=[N+]2[B-](F)(F)n2c(C)cc(C)c21
absorption maximum (in C1CCOC1): 506 nm
absorption maximum (in CC#N): 500 nm
absorption maximum (in CC(=O)C(C)(C)C): 505 nm
absorption maximum (in CC(C)=O): 503 nm
absorption maximum (in CCCCCC): 507 nm
absorption maximum (in CCOC(C)=O): 504 nm
absorption maximum (in CO): 503 nm

Structure (SMILES): CC1=CC(Br)=CN2C[n+]3cc(Br)cc(C)c3N=C12
absorption maximum (in CO): 436 nm

Structure (SMILES): Cc1cc(C)c(C2=C3C=c4c(c5ccccc5c5ccccc45)=[N+]3[B-](F)(F)n3c2cc2c4ccccc4c4ccccc4c23)c(C)c1
absorption maximum (in C1CCCCC1): 674 nm
absorption maximum (in C1CCOC1): 673 nm
absorption maximum (in CC#N): 666 nm
absorption maximum (in Cc1ccccc1): 680 nm
absorption maximum (in ClCCl): 673 nm

Structure (SMILES): CCCCCCc1ccc(/C=C/c2ccc(CCCCCC)s2)s1
absorption maximum (in Cc1ccccc1): 356 nm

Structure (SMILES): O=P1(c2ccccc2)C2=C(c3ccccc31)C(c1ccccc1)(c1ccccc1)c1cc(N(c3ccccc3)c3ccccc3)ccc12 (stereo unspecified)
absorption maximum (in CC#N): 427 nm
absorption maximum (in CO): 438 nm
absorption maximum (in Cc1ccccc1): 431 nm

Structure (SMILES): c1ccc2c(c1)c1ccccc1n2-c1ccc2cc(-c3ccc(-c4ccc(-c5cc6ccc(-n7c8ccccc8c8ccccc87)cc6o5)cc4)cc3)oc2c1
absorption maximum (in Cc1ccccc1): 369 nm
absorption maximum (in c1ccc2c(c1)c1ccccc1n2-c1ccc(-c2ccc(-n3c4ccccc4c4ccccc43)cc2)cc1): 380 nm

Structure (SMILES): CCOCCC1=Cc2nc1ccc1[nH]c(cc1CCOCC)c1nc(ccc3[nH]c2cc3CCOCC)C(CCOCC)=C1
absorption maximum (in Cc1ccccc1): 638 nm

Structure (SMILES): CCC1=C(C)C2=C(C)c3c(I)c(I)c(I)n3[B-](F)(F)[N+]2=C1C
absorption maximum (in C1CCCCC1): 531.5 nm
absorption maximum (in CC(C)=O): 517.5 nm
absorption maximum (in CCO): 522 nm
absorption maximum (in CCOC(C)=O): 521 nm
absorption maximum (in CO): 519.5 nm
absorption maximum (in OCC(F)(F)F): 511.5 nm

Structure (SMILES): O=[N+]([O-])c1ccc(N/C=C/C=[NH+]c2ccc([N+](=O)[O-])cc2)cc1
absorption maximum (in CS(C)=O): 388 nm

Structure (SMILES): COCCOCCOCCOCC(COCCOCCOCCOC)Oc1cc(/C=C/c2ccc(/C=C(\C#N)C(=O)c3ccccc3)cc2)c(OC(COCCOCCOCCOC)COCCOCCOCCOC)cc1/C=C/c1ccc(/C=C(\C#N)C(=O)c2ccccc2)cc1
absorption maximum (in ClCCl): 461 nm

Structure (SMILES): CCC1=C(C)C2=C(c3cc(C(=O)Cl)cc(C4=C5C(C)=C(CC)C(C)=[N+]5[B-](F)(F)n5c(C)c(CC)c(C)c54)c3)c3c(C)c(CC)c(C)n3[B-](F)(F)[N+]2=C1C
absorption maximum (in C1CCOC1): 530 nm
absorption maximum (in CC#N): 527 nm
absorption maximum (in CN(C)C=O): 535 nm
absorption maximum (in Cc1ccccc1): 534 nm
absorption maximum (in ClC(Cl)Cl): 534 nm

Structure (SMILES): c1ccc(-c2nc(-c3ccccc3)nc(-c3ccc(-n4c5ccc(-n6c7ccccc7c7ccccc76)cc5c5cc(-n6c7ccccc7c7ccccc76)ccc54)cc3)n2)cc1
absorption maximum (in Cc1ccccc1): 368 nm

Structure (SMILES): CCCN1/C(=C\c2c(-c3ccc(N(C)C)cc3)c(=O)c2=O)C=Cc2ccccc21
absorption maximum (in C1CCCCC1): 358 nm
absorption maximum (in Cc1ccccc1): 362 nm
absorption maximum (in ClCCl): 509 nm

Structure (SMILES): Cc1cc(-c2nc(-c3ccccc3)nc(-c3ccccc3)n2)cc(C)c1N1c2ccccc2CCc2ccccc21
absorption maximum (in Cc1ccccc1): 392.74 nm

Structure (SMILES): COc1cc2c3c4c(c5ccc(C(C)(C)C)cc5c5c(OC)cc(OC)c(c2c(OC)c1OC)c45)=[N+]1C3=Nc2c3c4cc(OC)c(OC)c(OC)c4c4c(OC)cc(OC)c5c6cc(C(C)(C)C)ccc6c(c3c54)n2[B-]1(F)F
absorption maximum (in Cc1ccccc1): 878 nm

Structure (SMILES): CC1(C)c2ccccc2N(c2cc[n+]3c(c2)-c2ccccc2O[B-]3(F)F)c2ccccc21
absorption maximum (in Cc1ccccc1): 358 nm

Structure (SMILES): CCCCC(CC)Cn1c2cc(C#N)ccc2c2ccc(C#Cc3cc(C#Cc4ccc5c6ccc(C#N)cc6n(CC(CC)CCCC)c5c4)c4ccc5c(C#Cc6ccc7c8ccc(C#N)cc8n(CC(CC)CCCC)c7c6)cc(C#Cc6ccc7c8ccc(C#N)cc8n(CC(CC)CCCC)c7c6)c6ccc3c4c65)cc21 (stereo unspecified)
absorption maximum (in ClCCl): 467 nm

Structure (SMILES): S=C1CCCCC1
absorption maximum (in CCO): 495 nm

Structure (SMILES): O=c1ccc2cc3ccoc3cc2o1
absorption maximum (in CC(C)O): 298 nm
absorption maximum (in CCO): 299 nm
absorption maximum (in CCOCC): 294 nm
absorption maximum (in CO): 300 nm
absorption maximum (in O): 303 nm

Structure (SMILES): CNc1cc2nc3cc(Br)c(Br)cc3nc2cc1NC
absorption maximum (in CCO): 443 nm

Structure (SMILES): Cc1ccc(C(=O)/C=C/c2ccc(N(C)C)cc2)cc1
absorption maximum (in C1CCOC1): 404 nm
absorption maximum (in CC#N): 411 nm
absorption maximum (in CC(=O)O): 427 nm
absorption maximum (in CC(C)=O): 405 nm
absorption maximum (in CCO): 422 nm
absorption maximum (in CN(C)C=O): 419 nm
absorption maximum (in CO): 419 nm
absorption maximum (in Cc1ccccc1): 404 nm
absorption maximum (in ClC(Cl)Cl): 412 nm
absorption maximum (in c1ccccc1): 404 nm

Structure (SMILES): Cc1ccc2nc3[nH]c(=O)[nH]c(=O)c3nc2c1
absorption maximum (in CC#N): 382 nm
absorption maximum (in ClCCCl): 384 nm

Structure (SMILES): CCCCCCCCCCOc1cc(OCCCCCCCCCC)cc(C2=C3C(/C=C/c4ccc(OC)cc4)=C(C#Cc4ccc(C(C)(C)C)cc4)C(/C=C/c4ccc(OC)cc4)=[N+]3[B-](F)(F)n3c(/C=C/c4ccc(OC)cc4)c(C#Cc4ccc(C(C)(C)C)cc4)c(/C=C/c4ccc(OC)cc4)c32)c1
absorption maximum (in ClC(Cl)Cl): 732 nm

Further lines, results first:

absorption maximum (in ClCCl): 524 nm
Structure (SMILES): Clc1nnc(Oc2ccc(N(c3ccc(Br)cc3)c3ccc(Br)cc3)cc2)nn1

absorption maximum (in ClC(Cl)Cl): 775 nm
Structure (SMILES): CC1=c2cc3c(C)c4n(c3cc2=[N+]2C1=Cc1c3ccccc3c(C)n1[B-]2(F)F)[B-](F)(F)[N+]1=C(C)c2ccccc2C1=C4

absorption maximum (in O): 500 nm
Structure (SMILES): CC[n+]1nc2cc3c4c(c2c2cc(C)ccc21)CCCN4CCC3

absorption maximum (in ClCCl): 447 nm
Structure (SMILES): Cc1cccc(C)c1N1C(c2ccccc2)=Cc2ccc3ccccc3[n+]2[B-]1(F)F

absorption maximum (in CCO): 386.1 nm
Structure (SMILES): Cc1cc(C)c2cc3cc(C)ncc3cc2c1

absorption maximum (in CO): 588 nm
Structure (SMILES): Cc1ccc(C2=C3C=CC(Nc4ccccc4)=[N+]3[B-](F)(F)n3c(Nc4ccccc4)ccc32)cc1

absorption maximum (in C1CCCCC1): 330 nm
absorption maximum (in CO): 340 nm
Structure (SMILES): COc1ccc(/C=C/c2nc3ccccc3o2)cc1

absorption maximum (in ClCCl): 340 nm
Structure (SMILES): CCCCC(CC)COc1cc(OCC(CC)CCCC)c2c#cc3ccc4c(c3)c3cc(c#cc5cc(c#cc6ccc7c(c6)c6cc(c#cc1c2)ccc6n7CC(CC)CCCC)c(C(CCCC)OCCC)cc5C(CCCC)OCCC)ccc3n4CC(CC)CCCC (stereo unspecified)

absorption maximum (in C1CCOC1): 342 nm
absorption maximum (in ClCCl): 342 nm
Structure (SMILES): Cc1ccc(-c2ccc3ccc4cc(C(C)(C)C)cc5ccc2c3c45)cc1

absorption maximum (in CC#N): 276 nm
absorption maximum (in CO): 276 nm
Structure (SMILES): CC(C)CCCN1c2ccccc2CCc2ccccc21

absorption maximum (in ClCCl): 467 nm
Structure (SMILES): O=C(c1ccc2c3c(cccc13)-c1cccc3c1C2CC=C3)c1c(Cc2ccccc2)c2ccc3cccc4c5cccc6ccc1c(c65)c2c34 (stereo unspecified)

absorption maximum (in ClCCl): 414 nm
Structure (SMILES): COc1ccc2c(c1)c1cc(OC)ccc1c1c2c2c(C(=O)NC(C)(C)C)ccc(C(=O)NC(C)(C)C)c2c2c3ccc(OC)cc3c3cc(OC)ccc3c21

absorption maximum (in CC#N): 455 nm
Structure (SMILES): Cc1ccc(-c2nc3c([nH]2)C2=CC(=O)S[C@]2(C)[C@@]2(C)SC(=O)C=C32)cc1

absorption maximum (in CCO): 360 nm
absorption maximum (in O): 361 nm
Structure (SMILES): Oc1ccc(-c2cccs2)cc1-c1nc2ccccc2s1

absorption maximum (in ClCCl): 449 nm
Structure (SMILES): CN(C)c1ccc(C2=CC3=C(c4ccc(C=O)cc4)[C@H]4c5ccccc5[C@]3(S2)c2ccccc24)cc1

absorption maximum (in CC#N): 396 nm
Structure (SMILES): Oc1ccccc1/C=N/CC/N=C/c1ccccc1O

absorption maximum (in CCCCCC): 450 nm
Structure (SMILES): CC(C)[Si](C#Cc1c2nc3c(nc2c(C#C[Si](C(C)C)(C(C)C)C(C)C)c2nc4c(nc12)C1c2ccccc2C4c2ccccc21)C1c2ccccc2C3c2ccccc21)(C(C)C)C(C)C

absorption maximum (in ClC(Cl)Cl): 470 nm
Structure (SMILES): CCn1c2ccccc2oc2c(C#N)c3oc4ccccc4oc3c(C#N)c21

absorption maximum (in CO): 308 nm
Structure (SMILES): N#Cc1cccc(-c2nc(-c3ccccc3)c(-c3ccccc3)[nH]2)c1

absorption maximum (in ClCCl): 431 nm
Structure (SMILES): CCCCCCCCCCCCCCCCCCOc1ccc([B-]23NC(c4ccccc4)=Nc4cccc([n+]42)N=C(c2ccccc2)N3)cc1

absorption maximum (in ClCCl): 412 nm
Structure (SMILES): O=P1(c2ccccc2)c2cccc3ccc4ccc1n4c23 (stereo unspecified)

absorption maximum (in ClCCl): 499 nm
Structure (SMILES): CCCC1=C(CCC)c2cccc3c2c(cc2nc4ccccc4nc23)O1

absorption maximum (in C1COCCO1): 415 nm
absorption maximum (in CC#N): 407 nm
absorption maximum (in ClCCl): 407 nm
Structure (SMILES): Cc1nc2cc(/C=C/c3ccc(N(C)C)cc3)ccc2nc1-c1ccccc1

absorption maximum (in ClCCl): 259 nm
Structure (SMILES): Cc1ccc(C)n1-c1cccc(C#N)c1

absorption maximum (in ClCCl): 427 nm
Structure (SMILES): CCCCCCCCCCCCN1C(=O)c2c(c3ccc4cc(-c5ccc(C(F)(F)F)cc5)c(OC)cc4c3c3c2ccc2cc(-c4ccc(C(F)(F)F)cc4)c(OC)cc23)C1=O

absorption maximum (in ClCCl): 518 nm
Structure (SMILES): O=[N+]([O-])c1cccc2c1ccc1[n+]2[B-](F)(F)n2c-1cc1c3ccccc3c3ccccc3c12

absorption maximum (in CC#N): 353 nm
Structure (SMILES): COc1ccc(C#Cc2cc3ccccc3oc2=O)cc1

absorption maximum (in C1COCCO1): 443 nm
absorption maximum (in CC#N): 445 nm
absorption maximum (in CO): 446 nm
absorption maximum (in ClCCCl): 448 nm
Structure (SMILES): CCn1c(=O)nc2n(C)c3cc(C)ccc3nc-2c1=O

absorption maximum (in ClC(Cl)Cl): 643 nm
Structure (SMILES): Cc1cc(C)c(C2=C3C=CC=[N+]3[B-]3(c4ccccc4)Oc4cc(O)cc5c6ccc(C)cc6c6cc2n3c6c45)c(C)c1 (stereo unspecified)

absorption maximum (in ClCCl): 342 nm
Structure (SMILES): O=[N+]([O-])c1ccc(O)c(-c2nc3c(c4c2-c2ccccc2CC4)-c2ccccc2CC3)c1

absorption maximum (in C1CCCCC1): 291 nm
absorption maximum (in CC#N): 289 nm
absorption maximum (in CO): 289 nm
Structure (SMILES): CCOC(=O)CCOc1ccc(C(c2c(C)[nH]c3ccccc23)c2c(C)[nH]c3ccccc23)cc1OC

absorption maximum (in ClCCl): 672 nm
Structure (SMILES): COc1c2ccccc2c(OC)c2c(C#CC(C)(C)C)c3cc4ccccc4cc3c(C#CC(C)(C)C)c12
